According to PubChem BioAssay (NCI):
Several values for one entry are separate records, joined by “and”; a condition that tells them apart may be missing. Identical values can stand only once.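 Interpolation was linear, between the two tested concentrations surrounding the appropriate level; five concentrations were tested over 48 hours in 96-well plates. At the GI50, growth is halved. Definition used: TGI = concentration required for complete inhibition of growth.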

Assays:
Assay in all cases: NCI anticancer screen, dose series, 48 h
A498 renal = test system: A498 renal
DU-145 prostate = test system: DU-145 prostate
HOP-92 NSCLC = test system: HOP-92 NSCLC
HT29 colon = test system: HT29 colon
IGROV1 ovarian = test system: IGROV1 ovarian
MDA-MB-231 breast = test system: MDA-MB-231 breast
MDA-N = test system: MDA-N
NCI-H226 lung = test system: NCI-H226 lung
OVCAR-3 ovarian = test system: OVCAR-3 ovarian
OVCAR-5 ovarian = test system: OVCAR-5 ovarian
OVCAR-8 ovarian = test system: OVCAR-8 ovarian
PC-3 prostate = test system: PC-3 prostate
SK-MEL-5 melanoma = test system: SK-MEL-5 melanoma
SNB-19 CNS = test system: SNB-19 CNS
SW-620 colon = test system: SW-620 colon
U251 CNS = test system: U251 CNS
UACC-62 melanoma = test system: UACC-62 melanoma
UO-31 renal = test system: UO-31 renal
SNB-75 CNS = test system: SNB-75 CNS

Row | Compound | TGI (A498 renal) [µM] | TGI (DU-145 prostate) [µM] | TGI (HOP-92 NSCLC) [µM] | TGI (HT29 colon) [µM] | TGI (IGROV1 ovarian) [µM] | TGI (MDA-MB-231 breast) [µM] | TGI (MDA-N) [µM] | TGI (NCI-H226 lung) [µM] | TGI (OVCAR-3 ovarian) [µM] | TGI (OVCAR-5 ovarian) [µM] | TGI (OVCAR-8 ovarian) [µM] | TGI (PC-3 prostate) [µM] | TGI (SK-MEL-5 melanoma) [µM] | TGI (SNB-19 CNS) [µM] | TGI (SW-620 colon) [µM] | TGI (U251 CNS) [µM] | TGI (UACC-62 melanoma) [µM] | TGI (UO-31 renal) [µM] | TGI (SNB-75 CNS) [µM] | GI50 (SNB-75 CNS)
1 | O=Cc1cn(CCCCCCCCCCCCn2cc(C=O)c3ccccc32)c2ccccc12 | > 100 | > 100 | > 100 | > 100 | > 100 | > 100 | > 100 | > 100 | > 100 | > 100 | > 100 | > 100 | > 100 | > 100 | > 100 | > 100 | > 100 | > 100 |  | 
2 | O=c1cc(N2CCOCC2)[nH]c(=O)n1-c1ccc(F)cc1 | > 100 | > 100 |  | > 100 | > 100 | > 100 | > 100 | > 100 | > 100 | > 100 | > 100 | > 100 |  | > 100 | > 100 | > 100 | > 100 |  | > 100 | 
3 | Nc1ccc(Oc2ccc(C34CC5CC6C3CC3CC4C(C5)C6(c4ccc(Oc5ccc(N)cc5)cc4)C3)cc2)cc1 | 55.7 | > 100 | 11.7 | > 100 | > 78.8 | 65.7 | 19.1 | 71.4 | 29.7 | > 100 | > 100 | 51.7 | 5.27 | > 61.4 | > 100 | 14.9 | > 87.9 | > 100 |  | 
4 | COc1cc(C2SCC(=O)N2c2ccccn2)cc(OC)c1OC (stereo unspecified) | > 100 | > 100 | 89.2 | > 100 | > 100 | > 100 | 41.6 | > 100 | > 100 | > 100 | > 100 | > 100 | > 100 | > 100 | > 100 | > 100 | > 100 | > 100 |  | 
5 | CNc1ccc(C(=O)CC(O)CCC(C)C2OC(=O)CC(O)CC(=O)CC(O)CC(O)CC(O)CC(O)CC3(O)CC(O)C(C(=O)NCCN(C)C)C(CC(OC4OC(C)C(O)C(NC(=O)CN5CCN(C)CC5)C4O)/C=C/C=C/C=C/C=C\C=C/C=C/C=C/C2C)O3)cc1 (stereo unspecified) | 7.8 | > 100 | > 100 | 9.92 | > 100 | > 100 | > 100 | > 100 |  | > 100 | > 100 | > 100 |  |  | > 100 | > 100 | > 100 | > 100 | > 100 | 
6 | CNC(C#N)c1ccc(OC)cc1 (stereo unspecified) | > 100 | > 100 | > 100 | > 100 | > 100 | > 100 | > 100 | > 100 | > 100 | > 100 | > 100 | > 100 | > 100 | > 100 | > 100 | > 100 | > 100 | > 100 |  | 
7 | COCC1OC(Sc2ccccc2)C(O)C(OC)C1OC (stereo unspecified) |  | > 100 |  | > 100 | > 100 | > 100 | > 100 | > 100 | > 100 | > 100 | > 100 | > 100 | > 100 | > 100 | > 100 | > 100 | > 100 | > 100 | > 100 | > 100 µM and 10.1 µM
8 | CCOC(=O)c1c(-c2ccc(OC)cc2)c(C#N)c(=S)n(C2OC(COC(C)=O)C(OC(C)=O)C(OC(C)=O)C2OC(C)=O)c1-c1ccccc1 (stereo unspecified) |  | > 100 | > 100 | > 100 | > 100 | > 100 | > 100 |  | > 100 | > 100 |  | > 100 | > 100 | > 100 | > 100 | > 100 | > 100 | > 100 | > 100 | 
9 | O=C(C=P(c1ccccc1)(c1ccccc1)c1ccccc1)c1ccc(-c2cccc([N+](=O)[O-])c2)s1 | 81.9 | > 100 | 81.4 | > 100 | > 100 | > 100 | > 100 |  | > 100 | > 100 | > 100 | > 100 | 74.2 | > 100 | > 100 | > 100 | > 100 | > 100 | 76.3 | 
10 | CCCC(=O)n1[nH]c(=O)n(-c2ccc(Cl)cc2)c1=O |  | > 100 |  | > 100 | > 100 | > 100 | > 100 | > 100 | > 100 | > 100 | > 100 | > 100 | > 100 | > 100 | > 100 | > 100 | > 100 | > 100 | > 100 | 
11 | CC(C)(C)[Si](C)(C)OCC1OC(n2ccc(N)nc2=O)C(O[Si](C)(C)C(C)(C)C)C1O[Si](C)(C)C(C)(C)C (stereo unspecified) |  | 23.7 | 4.71 | 3.02 | 3.94 | 22.7 | 13 | 2.86 | 3.3 | 3.58 | 5.68 | 3.65 | 3.43 | 11.4 | 2.93 |  | 3.64 | 3.07 | 14.2 | 
12 | CCc1cc2c(oc3cc4ccccc4cc32)c(=O)[nH]1 |  | > 10 | > 10 | > 10 | > 10 | > 10 | > 10 | > 10 | > 10 | > 10 | > 10 | > 10 |  | > 10 | > 10 |  |  | > 10 | > 10 | 
13 | O=C(O)c1ccc(N=C(C(=Nc2ccc(C(=O)O)cc2)c2ccccc2)c2ccccc2)cc1 | > 100 | > 100 |  |  | > 100 | > 100 | > 100 | > 100 | > 100 | > 100 | > 100 | > 100 |  | > 100 | > 100 | > 100 | > 100 | > 100 | > 100 | 
